Experimental data: paper PMC8035703, “Effect of Synchronous Versus Sequential Regimens on the Pharmacokinetics and Biodistribution of Regorafenib with Irradiation” (Pharmaceutics, 2021)
Read-outs that look alike come from different tables or passages of the source.

Experiments:
[1] = Organ distribution of regorafenib in rats with or without RT; assay type: in vivo, Sprague-Dawley rats; settings: for concentration at 4 h: male, Sprague-Dawley, 16 mg/kg, 4 h after oral administration
Protocol: According to the formula used to translate doses from animal to human, human equivalent dose (HED, mg/kg) = animal dose (mg/kg) × animal km/human km, we calculated the daily dose of regorafenib for rats to be 16 (mg/kg/day). The rats were randomly divided into ten groups with six rats in each group. The concurrent groups treated with regorafenib 1 h after RT, in the same day, to mimic regorafenib concurrent with RT in the daily practice. The sequential groups treated with regorafenib following RT (not in the same day), to mimic RT followed by regorafenib in the daily practice. The one fraction study group included (A) a sham group, regorafenib with RT0 Gy (regorafenib × 1 d); concurrent groups treated with regorafenib 1 h after (B) RT2 Gy with 1 fraction (RT2 Gy × 1 f’x) and (D) RT9 Gy with 1 fraction (RT9 Gy × 1 f’x); and sequential groups treated with regorafenib 24 h after (C) RT2 Gy × 1 f’x and (E) RT9 Gy × 1 f’x. Continued treatment mimicking clinical practice was applied to (A) a sham group, regorafenib (p.o. (per os), q.d. × 3 d) with RT0 Gy (regorafenib × 3 d); concurrent groups treated with regorafenib (p.o., q.d. × 3 d) 1 h after (B) RT2 Gy with 3 fractions (RT2 Gy × 3 f’x) and (D) RT9 Gy with 3 fractions (RT9Gy × 3 f’x); and sequential groups treated with regorafenib 24 h (p.o., q.d. × 3 d) after (C) RT2 Gy × 3 f’x and (E) RT9 Gy × 3 f’x. (Figure 1A,B).
Organs, including the brain, liver, heart, spleen, lung and kidney, were collected, weighed and stored at −20 °C, until analysis.
The organ samples were homogenized in 50% aqueous acetonitrile (sample weight: volume = 1:5) and centrifuged at 13,000× g, for 10 min, at 4 °C. The supernatant was stored at −20 °C, until analysis. Additionally, 150 μL of IS solution (diethylstilbestrol) was combined with each organ sample (50 μL) for protein precipitation. Finally, the filtrate (20 μL) was analyzed by HPLC.

[2] = Hepatic and renal functions (GPT, creatinine) in rats; assay type: in vivo, Sprague-Dawley rats; settings: rat
Protocol: Glutamic-pyruvic transaminase (GPT) and […] were measured to check the influence of different modalities on hepatic function and renal function by a standard colorimetric method, using a Synchron LX20 spectrophotometer (Beckman Coulter) and manufacturer-supplied reagents.

HA22T cells = assay: Colony formation assay; assay type: cell-based, human
Protocol: HA22T cells kindly provided from professor Hu (Taipei Veterans General Hospital, Taiwan) were treated with trypsin to detach, counted and plated (400 per plate) into dishes measuring 60 mm, […] and allowed to grow for 10 days. Cells were stained, and colonies containing ≥ 50 cells were counted.

Molecule `CNC(=O)c1cc(Oc2ccc(NC(=O)Nc3ccc(Cl)c(C(F)(F)F)c3)c(F)c2)ccn1` [regorafenib, Regorafenib] has a concentration at 4 h ([1]; rat, kidney, oral, rat, RT9 Gy × 1 f'x followed by regorafenib 16 mg/kg × 1 d (sequential), read-out: Concentration in kidneys) of 590 ± 340 ng/g, a concentration at 4 h ([1]; rat, kidney, oral, rat, RT9 Gy × 3 f'x followed by regorafenib 16 mg/kg × 3 d (sequential), read-out: Concentration in kidneys) of 400 ± 430 ng/g and a concentration at 4 h ([1]; rat, kidney, oral, rat, RT9 Gy × 3 f'x with regorafenib 16 mg/kg × 3 d (concurrent), read-out: Concentration in kidneys) of 170 ± 120 ng/g. The concentration at 4 h ([1]; rat, kidney, po, rat, 16 mg/kg p.o. × 1 d, no RT, read-out: Concentration in kidneys) was 340 ± 190 ng/g, the concentration at 4 h ([1]; rat, kidney, po, rat, 16 mg/kg p.o. × 3 d, no RT, read-out: Concentration in kidneys) was 650 ± 250 ng/g and the concentration at 4 h ([1]; rat, liver, oral, rat, RT2 Gy × 1 f'x with regorafenib 16 mg/kg × 1 d (concurrent), read-out: Concentration in liver) was 1100 ± 510 ng/g. It also gave a concentration at 4 h ([1]; rat, liver, oral, rat, RT9 Gy × 1 f'x followed by regorafenib 16 mg/kg × 1 d (sequential), read-out: Concentration in liver) of 2390 ± 1200 ng/g, a concentration at 4 h ([1]; rat, liver, oral, rat, RT9 Gy × 3 f'x followed by regorafenib 16 mg/kg × 3 d (sequential), read-out: Concentration in liver) of 1160 ± 1120 ng/g and a concentration at 4 h ([1]; rat, liver, oral, rat, RT9 Gy × 3 f'x with regorafenib 16 mg/kg × 3 d (concurrent), read-out: Concentration in liver) of 700 ± 290 ng/g. It also gave a concentration at 4 h ([1]; rat, liver, po, rat, 16 mg/kg p.o. × 1 d, no RT, read-out: Concentration in liver) of 1460 ± 340 ng/g, a concentration at 4 h ([1]; rat, liver, po, rat, 16 mg/kg p.o. × 3 d, no RT, read-out: Concentration in liver) of 1450 ± 740 ng/g and a concentration at 4 h ([1]; rat, lung, oral, rat, RT2 Gy × 1 f'x with regorafenib 16 mg/kg × 1 d (concurrent), read-out: Concentration in lung) of 290 ± 190 ng/g. It also gave a concentration at 4 h ([1]; rat, lung, oral, rat, RT9 Gy × 1 f'x followed by regorafenib 16 mg/kg × 1 d (sequential), read-out: Concentration in lung) of 1010 ± 700 ng/g, a concentration at 4 h ([1]; rat, lung, oral, rat, RT9 Gy × 3 f'x followed by regorafenib 16 mg/kg × 3 d (sequential), read-out: Concentration in lung) of 370 ± 230 ng/g and a concentration at 4 h ([1]; rat, lung, oral, rat, RT9 Gy × 3 f'x with regorafenib 16 mg/kg × 3 d (concurrent), read-out: Concentration in lung) of 250 ± 180 ng/g. It also gave a concentration at 4 h ([1]; rat, lung, po, rat, 16 mg/kg p.o. × 1 d, no RT, read-out: Concentration in lung) of 470 ± 180 ng/g, a concentration at 4 h ([1]; rat, lung, po, rat, 16 mg/kg p.o. × 3 d, no RT, read-out: Concentration in lung) of 1120 ± 250 ng/g and a concentration at 4 h ([1]; rat, spleen, oral, rat, RT2 Gy × 1 f'x with regorafenib 16 mg/kg × 1 d (concurrent), read-out: Concentration in spleen) of 190 ± 70 ng/g. It also gave a concentration at 4 h ([1]; rat, spleen, oral, rat, RT9 Gy × 1 f'x followed by regorafenib 16 mg/kg × 1 d (sequential), read-out: Concentration in spleen) of 680 ± 450 ng/g, a concentration at 4 h ([1]; rat, spleen, oral, rat, RT9 Gy × 3 f'x followed by regorafenib 16 mg/kg × 3 d (sequential), read-out: Concentration in spleen) of 230 ± 310 ng/g and a concentration at 4 h ([1]; rat, spleen, oral, rat, RT9 Gy × 3 f'x with regorafenib 16 mg/kg × 3 d (concurrent), read-out: Concentration in spleen) of 100 ± 80 ng/g. For the same molecule, the concentration at 4 h ([1]; rat, spleen, po, rat, 16 mg/kg p.o. × 1 d, no RT, read-out: Concentration in spleen) was 260 ± 100 ng/g, the concentration at 4 h ([1]; rat, spleen, po, rat, 16 mg/kg p.o. × 3 d, no RT, read-out: Concentration in spleen) was 380 ± 220 ng/g and the “Concentrations of regorafenib in the brain (in words)” value ([1]; rat, all regimens) was “very limited”. For the same molecule, the “Biodistribution in heart, liver, lung, spleen and kidneys (in words)” value ([1]; sequential RT2 Gy × 1 f'x and RT9 Gy × 1 f'x vs control (regorafenib × 1 d)) was “increased the biodistribution of regorafenib”, the “Creatinine at 240 min” value ([2]; concurrent RT2 Gy × 1 f'x) was 0.25 ± 0.06 mg/dL and the “Glutamate pyruvate transaminase at 240 min” value ([2]; concurrent RT2 Gy × 1 f'x) was 31.8 ± 5.3 UI. The “Creatinine at 240 min” value ([2]; concurrent RT9 Gy × 1 f'x) was 0.21 ± 0.02 mg/dL, the “Glutamate pyruvate transaminase at 240 min” value ([2]; concurrent RT9 Gy × 1 f'x) was 33.5 ± 8.8 UI and the “Glutamate pyruvate transaminase and creatinine, regorafenib with vs without RT” value ([2]; different regimens and doses) was “no significant differences”. For the same molecule, the “Creatinine at 240 min” value ([2]; regorafenib-only) was 0.23 ± 0.04 mg/dL, the “Glutamate pyruvate transaminase at 240 min” value ([2]; regorafenib-only) was 36.3 ± 15.0 UI and the “Creatinine at 240 min” value ([2]; sequential RT2 Gy × 1 f'x) was 0.22 ± 0.04 mg/dL. For the same molecule, the “Glutamate pyruvate transaminase at 240 min” value ([2]; sequential RT2 Gy × 1 f'x) was 30.5 ± 6.0 UI, the “Creatinine at 240 min” value ([2]; sequential RT9 Gy × 1 f'x) was 0.25 ± 0.04 mg/dL and the “Glutamate pyruvate transaminase at 240 min” value ([2]; sequential RT9 Gy × 1 f'x) was 33.7 ± 5.2 UI. For the same molecule, the “Colony formation, regorafenib with RT vs regorafenib alone (in words)” value (HA22T cells; regorafenib 1, 10 and 20 μM, concurrent or sequential with RT) was “synergic effects to inhibit the colony formation” and the “Colony formation of HA22T (in words)” value (HA22T cells; regorafenib 1 to 20 μM and RT (2 and 9 Gy)) was “colony formation of HA22T were decreased”.
